Patent publication US12391737B2, “Soluble NPY2 receptor agonists” (Boehringer Ingelheim International GmbH, priority 2020, dated 2025)
*1 amine or outer side, *2 acyl side, *3 side chain or, on linkers, in order; H or OH if unused. Where a SMILES comes first, the peptide text is derived from it. Side-chain parts run from the residue outwards. The star is where a group is joined. C18 diacid = O=C(O)CCCCCCCCCCCCCCCCC(=O)*; γGlu = O=C(O)[C@H](CCC(=O)[*:2])N[*:1]; Isovaleryl = CC(C)CC(=O)*; Ahx = NCCCCCC(=O)O

Legend:
[1] = target: T1, Human Neuropeptide Y2 Receptor (Homo sapiens, UniProt P49146); assay: Radioligand binding competition assay (RLB); details: Table 3, 125I-PYY(1-36) competition; read-out: Ki
T1 construct: purchased CHEMICON HTS066M
T1 sequence (P49146 1-381): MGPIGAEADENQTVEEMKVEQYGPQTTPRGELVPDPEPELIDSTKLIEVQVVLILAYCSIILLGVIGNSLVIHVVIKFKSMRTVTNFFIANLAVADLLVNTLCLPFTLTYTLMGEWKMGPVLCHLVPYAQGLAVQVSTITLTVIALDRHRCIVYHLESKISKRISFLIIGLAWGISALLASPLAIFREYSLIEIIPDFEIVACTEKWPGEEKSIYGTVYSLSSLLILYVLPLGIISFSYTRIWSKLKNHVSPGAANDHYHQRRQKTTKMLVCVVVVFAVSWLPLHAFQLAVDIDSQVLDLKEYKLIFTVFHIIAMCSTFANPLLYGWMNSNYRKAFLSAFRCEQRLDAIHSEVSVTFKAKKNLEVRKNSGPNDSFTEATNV
How it was run: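 IC50 values come from sigmoidal dose-response fits of scintillation counts after peptides competed for radioligand binding at receptor membranes (0.5 μg protein/well). Incubation ran 2 h at room temperature in HEPES buffer, pH 7.4, with Mg2+, Ca2+ and 0.2% ovalbumin.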

[2] = Solubility determination; details: for Sol6: pH 6; for Sol7: pH 7
How it was run: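 Sample: TFA-salt peptide at 10 mg/ml target in 0.1 M Na diphosphate, pH 6.4 or 7.0, shaken 2 h RT, filtered, diluted to 1 mg/ml.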

SMILES | Ki [1] [nM] | Sol6 [2] [mg/mL] | Sol7 [2] [mg/mL]
CC[C@H](C)[C@H](NC(=O)[C@H](CCC(=O)O)NC(=O)[C@H](CCC(=O)O)NC(=O)[C@@H]1CCCN1C(=O)[C@H](CCC(=O)O)NC(=O)[C@H](C)NC(=O)[C@H](C)NC(=O)[C@H](C)NC(=O)[C@H](CCC(=O)O)NC(=O)[C@@H]1CCCN1C(=O)[C@H](CCCCNC(=O)CCCCCNC(=O)CC[C@H](NC(=O)CCCCCCCCCCCCCCCCC(=O)O)C(=O)O)NC(=O)[C@H](CCC(=O)O)NC(=O)[C@@H]1CCCN1C(=O)[C@H](C)NC(=O)CC(C)C)C(=O)N[C@@H](CCC(N)=O)C(=O)N[C@@H](CCCNC(=N)N)C(=O)N[C@@H](Cc1ccc(O)cc1)C(=O)N[C@@H](Cc1ccc(O)cc1)C(=O)N[C@H](C(=O)N[C@@H](CO)C(=O)N[C@@H](CC(C)C)C(=O)N[C@@H](CCCNC(=N)N)C(=O)N[C@@H](Cc1c[nH]cn1)C(=O)N[C@@H](Cc1ccc(O)cc1)C(=O)N[C@@H](Cc1ccc(O)cc1)C(=O)N[C@@H](CC(N)=O)C(=O)N[C@@H](Cc1c[nH]c2ccccc12)C(=O)N[C@@H](CC(C)C)C(=O)N[C@H](C(=O)N[C@@H](CCCNC(=N)N)C(=O)N[C@@H](CCC(N)=O)C(=O)N[C@@H](CCCNC(=N)N)C(=O)N[C@@H](Cc1ccc(O)cc1)C(N)=O)[C@@H](C)O)C(C)C [Compound 124, N{alpha-4}-(3-methylbutanoyl)-N{epsilon-7}-(6-[(4S)-4-carboxy-4-(17-carboxyheptadecanamido)butanamido]hexanoyl)-[4A,7K,9E,10A,11A,13E,17I,18Q,22V,28Y,30W,31L]-hPYY(4-36)] (Isovaleryl-APEK([Ahx-γGlu-C18 diacid])PEAAAEPEEIQRYYVSLRHYYNWLTRQRY-NH2) | 3.07 | 9.7 | >10.0
CC(C)CC(=O)N[C@@H](C)C(=O)N1CCC[C@H]1C(=O)N[C@@H](CCC(=O)O)C(=O)N[C@@H](CCCCNC(=O)CCCCCNC(=O)CC[C@H](NC(=O)CCCCCCCCCCCCCCCCC(=O)O)C(=O)O)C(=O)N1CCC[C@H]1C(=O)N[C@@H](CCC(=O)O)C(=O)N[C@@H](CCC(=O)O)C(=O)N[C@@H](CC(=O)O)C(=O)N[C@@H](C)C(=O)N[C@@H](CO)C(=O)N1CCC[C@H]1C(=O)N[C@@H](CCC(=O)O)C(=O)N[C@@H](CCC(=O)O)C(=O)N[C@@H](CC(C)C)C(=O)N[C@@H](CCC(N)=O)C(=O)N[C@@H](CCCNC(=N)N)C(=O)N[C@@H](Cc1ccc(O)cc1)C(=O)N[C@@H](Cc1ccc(O)cc1)C(=O)N[C@H](C(=O)N[C@@H](CCC(=O)O)C(=O)N[C@@H](CC(C)C)C(=O)N[C@@H](CCCNC(=N)N)C(=O)N[C@@H](Cc1c[nH]cn1)C(=O)N[C@@H](Cc1ccc(O)cc1)C(=O)N[C@@H](Cc1ccc(O)cc1)C(=O)N[C@@H](CC(N)=O)C(=O)N[C@@H](Cc1c[nH]c2ccccc12)C(=O)N[C@@H](CC(C)C)C(=O)N[C@H](C(=O)N[C@@H](CCCNC(=N)N)C(=O)N[C@@H](CCC(N)=O)C(=O)N[C@@H](CCCNC(=N)N)C(=O)N[C@@H](Cc1ccc(O)cc1)C(N)=O)[C@@H](C)O)C(C)C [Compound 125, N{alpha-4}-(3-methylbutanoyl)-N{epsilon-7}-(6-[(4S)-4-carboxy-4-(17-carboxyheptadecanamido)butanamido]hexanoyl)-[4A,7K,9E,18Q,22V,23E,28Y,30W,31L]-hPYY(4-36)] | 3.37 | 9.7 | 10.0
CC(C)CC(=O)N[C@@H](C)C(=O)N1CCC[C@H]1C(=O)N[C@@H](CCC(=O)O)C(=O)N[C@@H](CCCCNC(=O)CCCCCNC(=O)CC[C@H](NC(=O)CCCCCCCCCCCCCCCCC(=O)O)C(=O)O)C(=O)N1CCC[C@H]1C(=O)N[C@@H](CCC(=O)O)C(=O)N[C@@H](CCC(=O)O)C(=O)N[C@@H](CC(=O)O)C(=O)N[C@@H](C)C(=O)N[C@@H](CCC(=O)O)C(=O)N1CCC[C@H]1C(=O)N[C@@H](CCC(=O)O)C(=O)N[C@@H](CCC(=O)O)C(=O)N[C@@H](CC(C)C)C(=O)N[C@@H](CCC(N)=O)C(=O)N[C@@H](CCCNC(=N)N)C(=O)N[C@@H](Cc1ccc(O)cc1)C(=O)N[C@@H](Cc1ccc(O)cc1)C(=O)N[C@H](C(=O)N[C@@H](CO)C(=O)N[C@@H](CC(C)C)C(=O)N[C@@H](CCCNC(=N)N)C(=O)N[C@@H](Cc1c[nH]cn1)C(=O)N[C@@H](Cc1ccc(O)cc1)C(=O)N[C@@H](Cc1ccc(O)cc1)C(=O)N[C@@H](CC(N)=O)C(=O)N[C@@H](Cc1c[nH]c2ccccc12)C(=O)N[C@@H](CC(C)C)C(=O)N[C@H](C(=O)N[C@@H](CCCNC(=N)N)C(=O)N[C@@H](CCC(N)=O)C(=O)N[C@@H](CCCNC(=N)N)C(=O)N[C@@H](Cc1ccc(O)cc1)C(N)=O)[C@@H](C)O)C(C)C [Compound 126, N{alpha-4}-(3-methylbutanoyl)-N{epsilon-7}-(6-[(4S)-4-carboxy-4-(17-carboxyheptadecanamido)butanamido]hexanoyl)-[4A,7K,9E,13E,18Q,22V,28Y,30W,31L]-hPYY(4-36)] | 4.42 | 9.6 | 8.8
CC(C)CC(=O)N[C@@H](C)C(=O)N1CCC[C@H]1C(=O)N[C@@H](CCC(=O)O)C(=O)N[C@@H](CCCCNC(=O)CCCCCNC(=O)CC[C@H](NC(=O)CCCCCCCCCCCCCCCCC(=O)O)C(=O)O)C(=O)N1CCC[C@H]1C(=O)N[C@@H](CCC(=O)O)C(=O)N[C@@H](C)C(=O)N[C@@H](C)C(=O)N[C@@H](C)C(=O)N[C@@H](CCC(=O)O)C(=O)N1CCC[C@H]1C(=O)N[C@@H](CCC(=O)O)C(=O)N[C@@H](CCC(=O)O)C(=O)N[C@@H](CC(C)C)C(=O)N[C@@H](CCC(N)=O)C(=O)N[C@@H](CCCNC(=N)N)C(=O)N[C@@H](Cc1ccc(O)cc1)C(=O)N[C@@H](Cc1ccc(O)cc1)C(=O)N[C@H](C(=O)N[C@@H](C)C(=O)N[C@@H](CC(C)C)C(=O)N[C@@H](CCCNC(=N)N)C(=O)N[C@@H](Cc1c[nH]cn1)C(=O)N[C@@H](Cc1ccc(O)cc1)C(=O)N[C@@H](Cc1ccc(O)cc1)C(=O)N[C@@H](CC(N)=O)C(=O)N[C@@H](Cc1c[nH]c2ccccc12)C(=O)N[C@@H](CC(C)C)C(=O)N[C@H](C(=O)N[C@@H](CCCNC(=N)N)C(=O)N[C@@H](CCC(N)=O)C(=O)N[C@@H](CCCNC(=N)N)C(=O)N[C@@H](Cc1ccc(O)cc1)C(N)=O)[C@@H](C)O)C(C)C [Compound 127, N{alpha-4}-(3-methylbutanoyl)-N{epsilon-7}-(6-[(4S)-4-carboxy-4-(17-carboxyheptadecanamido)butanamido]hexanoyl)-[4A,7K,9E,10A,11A,13E,18Q,22V,23A,28Y,30W,31L]-hPYY(4-36)] | 3.36 | 6.5 | >10.0
CC(C)CC(=O)N[C@@H](C)C(=O)N1CCC[C@H]1C(=O)N[C@@H](CCC(=O)O)C(=O)N[C@@H](CCCCNC(=O)CCCCCNC(=O)CC[C@H](NC(=O)CCCCCCCCCCCCCCCCC(=O)O)C(=O)O)C(=O)N1CCC[C@H]1C(=O)N[C@@H](CCC(=O)O)C(=O)N[C@@H](CCC(=O)O)C(=O)N[C@@H](CC(=O)O)C(=O)N[C@@H](C)C(=O)N[C@H](C(=O)N1CCC[C@H]1C(=O)N[C@@H](CCC(=O)O)C(=O)N[C@@H](CCC(=O)O)C(=O)N[C@@H](CC(C)C)C(=O)N[C@@H](CCC(N)=O)C(=O)N[C@@H](CC(C)C)C(=O)N[C@@H](Cc1ccc(O)cc1)C(=O)N[C@@H](Cc1ccc(O)cc1)C(=O)N[C@H](C(=O)N[C@@H](CO)C(=O)N[C@@H](CC(C)C)C(=O)N[C@@H](CCCNC(=N)N)C(=O)N[C@@H](Cc1c[nH]cn1)C(=O)N[C@@H](Cc1ccc(O)cc1)C(=O)N[C@@H](Cc1ccc(O)cc1)C(=O)N[C@@H](CC(N)=O)C(=O)N[C@@H](Cc1c[nH]c2ccccc12)C(=O)N[C@@H](CC(C)C)C(=O)N[C@H](C(=O)N[C@@H](CCCNC(=N)N)C(=O)N[C@@H](CCC(N)=O)C(=O)N[C@@H](CCCNC(=N)N)C(=O)N[C@@H](Cc1ccc(O)cc1)C(N)=O)[C@@H](C)O)C(C)C)[C@@H](C)O [Compound 130, N{alpha-4}-(3-methylbutanoyl)-N{epsilon-7}-(6-[(4S)-4-carboxy-4-(17-carboxyheptadecanamido)butanamido]hexanoyl)-[4A,7K,9E,13T,18Q,19L,22V,28Y,30W,31L]-hPYY(4-36)] | 9.36 | 9.9 | 10.0
